In ChEMBL document CHEMBL5550130, “Discovery of harmiprims, harmine-primaquine hybrids, as potent and selective anticancer and antimalarial compounds” (Bioorg Med Chem, 2024):
Calls of active or inactive are those of the source. The calls are words filed in the database; no cut-off is given here.

Columns and labels:
[1] = test system: HCT-116; test: Antiproliferative activity against human HCT-116 cells assessed as reduction in cell viability incubated for 72 hrs by MTT assay; format: functional, cell-based; details: HCT-116, 72 h
[2] = Selectivity index, ratio of IC50 for antiproliferative activity against human HEK293T cells to IC50 for antiproliferative activity against human MCF7 cells; format: toxicity, cell-based; details: HEK293T cells versus MCF7 cells, read-out: Ratio IC50
[3] = Antiproliferative activity against human HEK293T cells assessed as reduction in cell viability incubated for 72 hrs by MTT assay; format: toxicity, cell-based, HEK-293T
[4] = test system: MCF7; test: Antiproliferative activity against human MCF7 cells assessed as reduction in cell viability incubated for 72 hrs by MTT assay; format: functional, cell-based; details: MCF7, 72 h
[5] = test system: HepG2; test: Antiproliferative activity against human HepG2 cells assessed as reduction in cell viability incubated for 72 hrs by MTT assay; format: functional, cell-based; details: HepG2, 72 h
[6] = test system: Plasmodium falciparum; test: Resistance index, ratio of IC50 for antiplasmodial activity against erythrocytic stage of chloroquine-resistant Plasmodium falciparum Dd2 to IC50 for antiplasmodial activity against erythrocytic stage of chloroquine-sensitive Plasmodium falciparum 3D7; format: functional
[7] = test system: Plasmodium falciparum; test: Antiplasmodial activity against erythrocytic stage of chloroquine-resistant Plasmodium falciparum Dd2 assessed as inhibition of parasite growth incubated for 3 days by HRP2-ELISA; format: functional, organism-based; details: Dd2, 72 h
[8] = test system: Plasmodium falciparum; test: Antiplasmodial activity against erythrocytic stage of chloroquine-sensitive Plasmodium falciparum 3D7 assessed as inhibition of parasite growth incubated for 3 days by HRP2-ELISA; format: functional, organism-based; details: 3D7, 72 h
[9] = test system: SW-620; test: Antiproliferative activity against human SW620 cells assessed as reduction in cell viability incubated for 72 hrs by MTT assay; format: functional, cell-based; details: SW-620, 72 h
[10] = Selectivity index, ratio of IC50 for antiproliferative activity against human HEK293T cells to IC50 for antiplasmodial activity against erythrocytic stage of chloroquine-sensitive Plasmodium falciparum 3D7; format: toxicity, cell-based; details: read-out: Ratio IC50
[11] = test system: Plasmodium falciparum; test: Gametocytocidal activity against gametocytes of Plasmodium falciparum NF54 assessed as inhibition of ATP production measured after 48 hrs by Bac-TiterGlo analysis; format: functional, organism-based; details: NF54, 48 h
[12] = test system: MCF7; test: Induction of cell cycle arrest in human MCF7 cells assessed as increase in accumulation of cells at G2/M phase at 4.5 uM measured upto 48 hrs by propidium iodide/RNAse A staining based cell sorter analysis; format: functional
[13] = test system: dsDNA; test: Binding affinity to double stranded DNA (unknown origin) assessed as increase in fluorescence intensity by fluorescence quenching analysis; format: nucleic-acid assay
[14] = test system: dsDNA; test: Binding affinity to double stranded DNA (unknown origin) by CD spectroscopic analysis; format: nucleic-acid assay
[15] = test system: MCF7; test: Induction of cell cycle arrest in human MCF7 cells assessed as increase in accumulation of cells at G1 phase at 4.5 uM measured upto 48 hrs by propidium iodide/RNAse A staining based cell sorter analysis; format: functional
[16] = test system: RNA; test: Binding affinity to double stranded RNA (unknown origin) assessed as binding constant by UV-Visible absorption spectroscopic analysis; format: nucleic-acid assay
[17] = test system: RNA; test: Binding affinity to double stranded RNA (unknown origin) by CD spectroscopic analysis; format: nucleic-acid assay
[18] = test system: Calf thymus DNA; test: Binding affinity to calf thymus DNA assessed as thermal stabilization by thermal denaturation based UV-Visible absorption spectroscopic analysis; details: Bos taurus
[19] = test system: RNA; test: Binding affinity to double stranded RNA (unknown origin) assessed as thermal stabilization by thermal denaturation based UV-Visible absorption spectroscopic analysis; format: nucleic-acid assay
[20] = test system: Plasmodium berghei; test: Antiplasmodial activity against hepatic stage of Plasmodium berghei sporozoites infected in human Huh-7 cells assessed as inhibition of parasite growth incubated for 1 hr by bioluminescence assay; format: functional, organism-based; details: Huh-7, 1 h
[21] = test system: Plasmodium berghei; test: Antiplasmodial activity against hepatic stage of Plasmodium berghei sporozoites infected in human Huh-7 cells assessed as reduction in parasite growth at 1 uM incubated for 1 hr by bioluminescence assay; format: functional, organism-based
[22] = Drug uptake in human MCF7 cells at 10 uM incubated for 30 mins by fluorescence microscopic analysis; format: ADME, cell-based; details: mcf7, 0.5 h
[23] = test system: Plasmodium berghei; test: Antiplasmodial activity against hepatic stage of Plasmodium berghei sporozoites infected in human Huh-7 cells assessed as reduction in parasite growth at 10 uM incubated for 1 hr by bioluminescence assay; format: functional, organism-based
[24] = test system: RNA; test: Binding affinity to double stranded RNA (unknown origin) assessed as increase in fluorescence intensity by fluorescence quenching analysis; format: nucleic-acid assay
[25] = test system: Calf thymus DNA; test: Binding affinity to calf thymus DNA assessed as binding constant by UV-Visible absorption spectroscopic analysis; details: Bos taurus

Structure (SMILES): O=c1[nH]cc(F)c(=O)[nH]1 [FLUOROURACIL]
- IC50 [1]: 14.4 µM
- selectivity ratio [2]: 0.74
- IC50 at 72 h [3]: 17.6 µM
- IC50 [4]: 23.9 µM
- IC50 [5]: 5.46 µM

Structure (SMILES): COc1cc(NC(C)CCCNC(=O)NCCn2c3cc(OC)ccc3c3ccnc(C)c32)c2ncccc2c1 (stereo unspecified)
- Ratio IC50 [6]: 1.57
- IC50 [7]: 1.1 µM
- IC50 [1]: 10.6 µM
- IC50 [8]: 0.702 µM
- selectivity ratio [2]: 1.39
- IC50 at 72 h [3]: 12.7 µM
- IC50 [9]: 9.93 µM
- IC50 [4]: 9.15 µM
- selectivity ratio [10]: 18.1
- IC50 [5]: 12.3 µM

Structure (SMILES): CC[C@H](C)[C@H](NC(=O)[C@H]([C@@H](C)CC)N(C)C(C)=O)C(=O)N[C@H](C(=O)N[C@@H](CC(C)C)C(=O)[C@@]1(C)CO1)[C@@H](C)O [EPOXOMYCIN]
- IC50 [11]: 0.0167 µM

Structure (SMILES): COc1ccc2c(c1)[nH]c1c(C)nccc12 [HARMINE]
- Ratio IC50 [6]: >3.36
- IC50 [7]: > 27.7 µM
- IC50 [1]: 7.64 µM
- selectivity ratio [2]: 1.55
- IC50 at 72 h [3]: 21 µM
- IC50 [9]: 7.32 µM
- selectivity ratio [10]: 2.5
- IC50 [5]: 14.9 µM

Structure (SMILES): COc1cc(NC(C)CCCn2cc(COc3ccc4c(c3)[nH]c3c(C)nccc34)nn2)c2ncccc2c1 (stereo unspecified)
- Ratio IC50 [6]: 1.67
- IC50 [7]: 0.353 µM
- IC50 [1]: 7.31 µM
- IC50 [8]: 0.211 µM
- selectivity ratio [2]: 1.28
- IC50 at 72 h [3]: 7.62 µM
- IC50 [9]: 6.99 µM
- IC50 [4]: 5.93 µM
- selectivity ratio [10]: 36
- IC50 [5]: 7.87 µM

Structure (SMILES): COc1cc(NC(C)CCCNC(=O)NCCOc2ccc3[nH]c4c(C)nccc4c3c2)c2ncccc2c1 (stereo unspecified)
- Ratio IC50 [6]: 0.83
- IC50 [7]: 8.84 µM
- IC50 [1]: 7.79 µM
- IC50 [8]: 10.7 µM
- selectivity ratio [2]: 0.84
- IC50 at 72 h [3]: 12 µM
- IC50 [9]: 10.6 µM
- IC50 [4]: 14.2 µM
- selectivity ratio [10]: 1.1
- IC50 [5]: 10.9 µM

Structure (SMILES): COc1cc(NC(C)CCCn2cc(Cn3c4cc(OC)ccc4c4ccnc(C)c43)nn2)c2ncccc2c1 (stereo unspecified)
- Activity [12]: inactive
- Ratio IC50 [6]: 1.73
- Activity [13]: Active
- Activity [14]: inactive
- IC50 [7]: 0.906 µM
- Activity [15]: Active
- log Ks [16]: 4.6
- Activity [17]: inactive
- Activity [18]: inactive
- Activity [19]: inactive
- IC50 [20]: 1.46 µM
- Activity [21]: Active
- Drug uptake [22]: Active
- IC50 [1]: 23.2 µM
- IC50 [8]: 0.523 µM
- selectivity ratio [2]: > 5.6
- Activity [23]: Active
- Activity [24]: Active
- IC50 at 72 h [3]: > 50 µM
- IC50 [9]: > 50 µM
- IC50 [4]: 8.93 µM
- selectivity ratio [10]: > 95.5
- IC50 [5]: > 50 µM
- log Ks [25]: 5.5

Structure (SMILES): COc1cc(NC(C)CCCn2cc(-c3cc4c([nH]c5ccccc54)c(C)n3)nn2)c2ncccc2c1 (stereo unspecified)
- Ratio IC50 [6]: 0.74
- IC50 [7]: 0.632 µM
- IC50 [1]: 18.3 µM
- IC50 [8]: 0.857 µM
- selectivity ratio [2]: > 3.46
- IC50 at 72 h [3]: > 50 µM
- IC50 [9]: 15.8 µM
- IC50 [4]: 14.5 µM
- selectivity ratio [10]: > 58.3
- IC50 [5]: > 50 µM

Structure (SMILES): COc1cc(NC(C)CCCNC(=O)NCCOc2ccc3c(c2)[nH]c2c(C)nccc23)c2ncccc2c1 (stereo unspecified)
- Ratio IC50 [6]: 1.2
- IC50 [7]: 8.07 µM
- IC50 [1]: 7.71 µM
- IC50 [8]: 6.77 µM
- selectivity ratio [2]: 0.86
- IC50 at 72 h [3]: 7.63 µM
- IC50 [9]: 7.59 µM
- IC50 [4]: 8.87 µM
- selectivity ratio [10]: 1.1
- IC50 [5]: 7.97 µM

Structure (SMILES): CN(C)c1ccc2nc3ccc(N(C)C)cc3[s+]c2c1 [METHYLENE BLUE ANHYDROUS]
- IC50 [11]: 0.506 µM

Structure (SMILES): COc1cc(NC(C)CCCn2cc(-c3nccc4c3[nH]c3ccccc34)nn2)c2ncccc2c1 (stereo unspecified)
- Ratio IC50 [6]: 1.77
- IC50 [7]: 4.48 µM
- IC50 [1]: 10.2 µM
- IC50 [8]: 2.52 µM
- selectivity ratio [2]: < 0.51
- IC50 at 72 h [3]: 25.3 µM
- IC50 [9]: 14.1 µM
- IC50 [4]: > 50 µM
- selectivity ratio [10]: 10
- IC50 [5]: > 50 µM

Structure (SMILES): COc1cc(NC(C)CCCNC(=O)NCc2cc3c([nH]c4ccccc43)c(C)n2)c2ncccc2c1 (stereo unspecified)
- Ratio IC50 [6]: 0.98
- IC50 [7]: 2.35 µM
- IC50 [1]: 27.2 µM
- IC50 [8]: 2.4 µM
- selectivity ratio [2]: > 4.29
- IC50 at 72 h [3]: > 50 µM
- IC50 [9]: 25 µM
- IC50 [4]: 11.7 µM
- selectivity ratio [10]: > 20.8
- IC50 [5]: > 50 µM

Structure (SMILES): COc1cc(NC(C)CCCN)c2ncccc2c1 (stereo unspecified) [PRIMAQUINE]
- Ratio IC50 [6]: 1.12
- IC50 [7]: 5.45 µM
- IC50 [1]: 20.8 µM
- IC50 [8]: 4.87 µM
- selectivity ratio [2]: 1.42
- IC50 at 72 h [3]: 37.6 µM
- IC50 [9]: 9.2 µM
- IC50 [4]: 26.6 µM
- selectivity ratio [10]: 7.7

Structure (SMILES): COc1cc(NC(C)CCCn2cc(COc3ccc4[nH]c5c(C)nccc5c4c3)nn2)c2ncccc2c1 (stereo unspecified)
- Ratio IC50 [6]: 2.11
- Activity [13]: inactive
- Activity [14]: inactive
- IC50 [7]: 0.895 µM
- log Ks [16]: 3.4
- Activity [17]: inactive
- Activity [18]: inactive
- Activity [19]: inactive
- Drug uptake [22]: Active
- IC50 [1]: 18.2 µM
- IC50 [8]: 0.425 µM
- selectivity ratio [2]: 2.67
- Activity [24]: inactive
- IC50 at 72 h [3]: 25.2 µM
- IC50 [9]: 8.94 µM
- IC50 [4]: 9.45 µM
- IC50 [5]: 6.67 µM
- log Ks [25]: 3.4
